The values below come from ChEMBL document CHEMBL6115006, “Discovery of potent quinone oxidoreductase 2 inhibitors to overcome TRAIL resistance of non-small cell lung cancer” (Eur J Med Chem, 2025).

For orientation: IC50 means the midpoint of a concentration-inhibition curve. A higher IC50 goes with weaker potency in that assay.

The target in assay [1] is T1, Ribosyldihydronicotinamide dehydrogenase [quinone] (Homo sapiens, UniProt P16083).
T1 sequence (P16083 whole entry): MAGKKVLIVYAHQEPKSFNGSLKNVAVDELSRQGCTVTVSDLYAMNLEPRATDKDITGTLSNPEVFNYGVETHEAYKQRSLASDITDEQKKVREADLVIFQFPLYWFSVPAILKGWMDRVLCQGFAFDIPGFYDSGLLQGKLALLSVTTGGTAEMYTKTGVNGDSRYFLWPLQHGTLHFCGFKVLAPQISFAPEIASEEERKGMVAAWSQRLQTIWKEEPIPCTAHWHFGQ
Description: Inhibition of recombinant human NQO2 using DCPIP and EPR as substrate measured over 1 min in presence of FAD by spectrophotometric analysis

For assay [2], the system named is A549. The assay can be described thus: cells. The following applies: Homo sapiens, A549, 48 h, read-out: INH.

The structures appear in SMILES notation.

`COc1cc(-c2ccc3cc(N)ccc3c2)cc(OC)c1OC` had an IC50 in assay [1] of 69 nM. In addition, the inhibition at 10 µM in assay [2] is 24.3%. For `Oc1ccc(/C=C/c2cc(O)cc(O)c2)cc1` [RESVERATROL], the inhibition at 10 µM in assay [2] worked out at 15.4%. Same read-out and setting: then `COc1cc(/C=C/c2ccc(N)cc2)cc(OC)c1OC`, with 14.7%.
